Measurements: a melting point compilation (Tetko et al.; mined from patent text by program, amines drawn as free bases though some values may be those of a salt)
Residues, ends and D or L forms follow the SMILES beside them.

melting point [°C]	SMILES
264	O=C1CC(=O)C2C3C=CC(CC3)C12 (stereo not drawn)
141 to 143	C=CCC1(CC=C)c2cc(Br)ccc2-c2ccc(N(c3ccccc3)c3ccccc3)cc21
120 to 121	CCCCOc1ccc(C[C@H](NC(=O)[C@H]2CC[C@H](C(C)C)CC2)C(=O)O)cc1
140 to 142	CCOC(=O)c1cnc2n(c1=O)C(C)CC=C2N(C)c1ccccc1 (stereo not drawn)
211 to 213	FC(F)(F)c1cccc(Nc2ccccc2-c2n[nH]c(=S)o2)c1
80 to 84	CN1CCN(c2cc(Br)cc3c2c(=O)n(Cc2ccccc2)c(=O)n3Cc2ccccc2)CC1
150 to 151	COc1cc2c(cc1O)CCC1C2CCC2(C)C1CCC21OCCO1 (stereo not drawn)
142 to 146	COc1ccc(Oc2cc3nc(-c4ccccc4)oc3cc2[N+](=O)[O-])cc1
100 to 102	CCOC(=O)CCNC(=O)CN1CC(=O)N(C)c2ccc(NC(=O)NCc3ccccc3)cc2C1=O
109 to 111	CCCCC1CCC2NC(=O)CC2C1 (stereo not drawn)
134 to 135	Cc1ccc(CSc2c(O)cc(C)oc2=O)cc1
148 to 150	CN(O)C(=O)c1ccc(CCCCc2ccncc2)cc1
71 to 72	COC(=O)C1=C(CF)NC(C)=C(C(=O)OC(C)C)C1c1ccccc1C(F)(F)F (stereo not drawn)
179 to 180	COc1ccc2c(c1)C(=O)CC21CNC(=O)C1 (stereo not drawn)
138 to 139	CS(=O)Cc1nnc(-c2ccc3occ(-c4cccc(OC(F)(F)F)c4)c3c2)o1 (stereo not drawn)
183 to 184	O=C1CCC2(CC3CCC2CC3)C(=O)N1 (stereo not drawn)
277 to 279	CC(=O)Nc1cc2cc([N+](=O)[O-])ccc2oc1=O
45	CCCCCCCCCCCCCCCCOc1cc(C(=O)OCC)cc(C(=O)OCC)c1
> 250	COc1cc2cc(CO)nc(-c3ccnc(-n4nc(-c5cccnc5)c5ccccc5c4=O)c3)c2cc1OC
122	O=C(NCC1CCCO1)c1cccc(-c2ccc3c(c2)C(c2cc(Cl)ccc2Cl)CC3)c1 (stereo not drawn)
143 to 145	Fc1ccc(CC(c2ccccc2)C(F)(F)F)cc1 (stereo not drawn)
199 to 200	O=C(NC1CCN(CCCOc2ccc3c4c(c(=O)oc3c2)CCC4)CC1)c1cccnc1
218 to 220	COc1cc(O)c2c(c1OC)C(=O)C(O)=C(C)C2=O
120	COc1c(NC2CCC(=Cc3ccccc3)CC2)ccnc1C (stereo not drawn)
124 to 125	CC(=O)SCSc1ncn(C(c2ccccc2)(c2ccccc2)c2ccccc2)n1

melting point [°C]	SMILES
68	COC(=S)c1ccnc(C)n1
140 to 142	CCOc1ccc(-c2ccc3c(c2)C=C(C(=O)OC(C)(C)C)CCN3C)cc1
104	CCOC(=O)c1cnn(-c2ccc(OCC(C)CC)c(C#N)c2)c1 (stereo not drawn)
142 to 143	COc1ccc2c(c1)c1c(n2Cc2ccccc2)CCCC1C(=O)N1CCN(c2ccccc2)CC1 (stereo not drawn)
47 to 48	CCCCCCCCCCCCCCCCCC(=O)NCC(O)C(C)(O)CCCC(C)CCCC(C)CCCC(C)C (stereo not drawn)
124 to 126	COc1ccc(-c2cc(-c3ccccc3)c(-c3ccccc3)s2)cc1
141	CCOC(=O)C(c1c(Cl)ccc(Cl)c1Cl)N(C(=O)CCl)c1ccc(Br)cc1 (stereo not drawn)
214 to 217	Cc1cc2cc(CN3CCCC3)cnc2cc1NC(=O)c1ccc(-c2ccc(Cl)cc2)cc1
61 to 67	Cc1ccc(-c2ccc(C)cc2C=CC#Cc2ccc(C(=O)O)cc2)cc1
70 to 71.5	CCOC(=O)c1snc(-c2ccccc2)c1C(=O)OCC
178	O=C(ON1C(=O)CCC1=O)c1ccccc1
155 to 157	CCC(C)(C#N)NC(=O)Cc1c(C)cc(C)cc1C (stereo not drawn)
110 to 112	CCCCCCCCCCN=C=O
247 to 249	Cn1c(C(=O)O)c(-c2ccc(F)cc2)c2nccnc2c1=O
129 to 131	C=C(C)C(=O)Oc1ccc(NS(C)(=O)=O)cc1
166 to 167	Cc1c(Cl)cccc1S(=O)(=O)Nc1ccc2nccnc2c1
182 to 184	O=[N+]([O-])c1cccc2nc3c(nc12)N1CCCCC1CO3 (stereo not drawn)
145 to 148	OC1(Cn2cncn2)CCCC1Cc1ccc(-c2ccccc2)cc1 (stereo not drawn)
83	CCN(CC)C(=O)c1cccnc1OC
225 to 258	N#Cc1c(Br)[nH]c(-c2ccccc2)c1C#N
97 to 99	O=C(c1ccccc1)N(N=Cc1ccccc1)c1ccccc1F
281	CC(CCNC(=O)C(C#N)=Cc1ccc(O)c(O)c1)NC(=O)C(C#N)=Cc1ccc(O)c(O)c1 (stereo not drawn)
190	COc1ccc(-c2nc3cc(F)ccc3s2)cc1OC(C)=O
116 to 118	Cc1ccc(S(=O)(=O)n2ccnc2C(O)(c2ccccc2)c2ccc(Cl)cc2)cc1 (stereo not drawn)
242 to 245	Cc1nc2c(N)nc3ccccc3c2n1CCS(C)(=O)=O

melting point [°C]	SMILES
235	OC1CSC(Oc2cncc(-c3cc4ccccc4s3)c2)C(O)C1O (stereo not drawn)
211 to 214	Nc1ncnc2c1c(-c1cn[nH]c1)nn2Cc1oc2ccc(F)cc2c(=O)c1-c1ccccc1
166 to 167	O=C1NCc2ccc(OCCCCN3CCN(c4cccc(Cl)c4Cl)CC3)nc2N1
135 to 136	CC(=O)OCC(=O)C1(OC(C)=O)C(C)CC2C3CCC4=CC(=O)C=CC4(C)C3(F)C=CC21C (stereo not drawn)
138 to 140	Cc1ccc2ccc(O)c(CC(=O)O)c2c1
121 to 122	N#Cc1cccc(CN2CCc3ccc(C(=O)CCCC4CCN(Cc5ccccc5Cl)CC4)cc3CC2)c1
175	CC1=NOC(c2c(S(C)(=O)=O)ccc(C(=O)O)c2Cl)C1 (stereo not drawn)
144 to 145	Cc1oc(-c2ccccc2)nc1CCOc1ccc(CCl)c2sccc12
65	O=[N+]([O-])c1ccc(F)c(-c2cccs2)c1
115 to 116	CCCc1oc(-c2ccccc2)nc1COc1ccc(COc2cccc(CC(=O)O)c2)cc1
45 to 51	CCN(CC)S(=O)(=O)c1ccccc1N
62.5 to 64.3	N#Cc1ccc(CCC2CCC(=O)CC2)cc1
108 to 111	CN1C(=O)c2c(-c3ccccc3)noc2CC1c1ccccc1 (stereo not drawn)
179	N#Cc1ccc(-c2cccc(OC3SCC(O)C(O)C3O)c2)cn1 (stereo not drawn)
109 to 111	Cc1cnc(Br)c(C#N)c1
151 to 152	Cc1c(Br)c2c(c(C)c1NC=O)C(c1ccc(C(C)C)cc1)CO2 (stereo not drawn)
62 to 63	CCCCc1cc(C(=O)OC)c(N)s1
127	NS(=O)(=O)Cc1ccccc1OC(F)(F)F
165 to 167	COC(=O)C1=C(C)NC(C)=C(C(=O)OCC2CCCO2)C1c1ccccc1Cl (stereo not drawn)
214 to 216	COc1cc(C(=O)CC(c2ccncc2)C(C)(C)[N+](=O)[O-])cc(OC)c1OC (stereo not drawn)
138	CCC1CC2C3CCC(C(C)CC(C)C(=O)O)C3(C)CCC2C2(C)CCC(O)CC12 (stereo not drawn)
57.6	CCCCC1(CC)CS(=O)(=O)c2ccccc2N(c2ccccc2)C1=O (stereo not drawn)
118 to 120	COC(=O)CCCc1cc2nc(Cl)ccc2n1S(=O)(=O)c1ccc(C)c2ccccc12
220	CC(=O)c1cc2sc(C)c(N(C)S(=O)(=O)c3cccs3)c2[nH]1
270	O=C(O)c1ccc(COc2ccccc2)nc1C(=O)O

melting point [°C]	SMILES
> 300	Nc1[nH]nc(-c2ccc(Cl)cc2)c1-c1ccncc1
98 to 100	CCOC(=O)c1cc(=O)c2c(OCC(O)COc3ccc(Cl)cc3Cl)cccc2o1 (stereo not drawn)
186 to 188	C=C1N(C(C)C)C(=O)OC12CCN(C(=O)NC(=O)c1cccnc1Cl)CC2
157	CCC1(C)C(=O)c2cc(OC)c(Cl)c(Cl)c2C1=O (stereo not drawn)
63.6	C=CC(=O)Oc1ccc(-c2cccc(OC(=O)C=C)c2)cc1
60 to 63	COC(=O)COc1cccc(-c2ccc(Cl)cc2)n1
188 to 190	Cc1cc2c3c(c1)c(=O)c(C(=O)O)cn3C1CCCCC21 (stereo not drawn)
94 to 97	Cc1cc(Br)c2c(c1)C(=O)C(=O)N2CCN(C(C)C)C(C)C
130 to 135	COC(=O)c1ccc2cc(C(O)c3cccnc3)ccc2c1 (stereo not drawn)
184 to 185	COC(=O)c1nc(N)sc1-c1ccc(SC)cc1
139 to 141	Cc1c(F)c(=O)n(-c2cc(OC(C)C)c(Cl)cc2F)c(=O)n1C
140 to 141	CCOC(=O)c1cc2c(C(F)(F)F)cc(C=O)cc2n1C
198 to 200	O=CC=CC(=C(c1ccc(F)cc1)c1ccc(F)cc1)n1nnnc1-c1ccccc1
> 300	Nc1ccc2nc(O)c(O)nc2c1N
179 to 181	COc1cccc(NS(=O)(=O)c2ccc(N3CCNC3=O)cc2)c1
35 to 36	CCCSc1cc(OCc2ccc(Cl)cc2)ccc1C
116 to 120	Cc1cn(S(=O)(=O)c2ccccc2)c2ccccc12
224 to 225	O=Cc1c[nH]c2cc(C(=O)NCC3CCCC3)ccc12
208 to 210	CCN(CC)CCN1C(=O)Nc2ccccc2C1c1cccc(O)c1 (stereo not drawn)
110 to 112	CCCCC12COC(c3ccc(Br)cc3)(OC1)SC2
111 to 113	O=C(Nc1cccc([N+](=O)[O-])c1)C(F)(F)C(F)(F)F
205 to 207	NC(=O)c1cc2c(SC3CCCCC3)cncc2s1
82 to 86	O=[N+]([O-])c1ccc(F)cc1CO
126 to 127	O=C(CCCS(=O)c1ccc(Cl)cc1)NO (stereo not drawn)

SMILES	melting point [°C]
CCc1nnc2n1-c1ccc(Cl)cc1C(c1ccccc1)=NC2	229 to 230
CC(C)CC(NC(=O)C(Cc1ccccc1)NC(=O)CNC(=O)C(C)NC(=O)C(N)Cc1ccc(O)cc1)C(=O)NC(CCCNC(=N)N)C(=O)O (stereo not drawn) (H-YAGFLR-OH; configuration not given here)	173 to 176
CNC(=O)CN1CCC(C(O)(c2ccc(F)cc2)c2ccc(F)cc2)CC1	122 to 124
O=C(OCC1CC1)c1ncn2c1[C@@H]1CCCN1C(=O)c1c(Br)cccc1-2	135 to 136
